According to ChEMBL document CHEMBL1146317, “2-(2,2,2-Trifluoroethyl)-5,6-dichlorobenzimidazole derivatives as potent androgen receptor antagonists” (Bioorg Med Chem Lett, 2007):
The source made the active and inactive calls. No cut-off for these calls is given here.

Experiments:
Rattus norvegicus [1] = organism: Rattus norvegicus; assay: Inhibition of testoterone-induced prostate weight in castrated immature Sprague-Dawley rat at 2 mg/day relative to control; type: functional, Prostate gland; conditions: for Activity: Prostate gland
Rattus norvegicus [2] = organism: Rattus norvegicus; assay: Inhibition of testoterone-induced prostate weight in castrated immature Sprague-Dawley rat; type: functional, Prostate gland
Rattus norvegicus [3] = organism: Rattus norvegicus; assay: Toxicity in castrated immature Sprague-Dawley rat at 2 mg/day; conditions: in vivo
Rattus norvegicus [4] = organism: Rattus norvegicus; assay: Inhibition of testoterone-induced prostate weight in castrated immature Sprague-Dawley rat at 1 mg/day relative to control; type: functional, Prostate gland

Compound: OC(O)(c1nc2cc(Cl)c(Cl)cc2[nH]1)C(F)(F)F
- Inhibition (Rattus norvegicus [1]): 94%

Compound: CC(O)(c1nc2cc(Cl)c(Cl)cc2[nH]1)C(F)(F)F (centres undefined)
- Inhibition (Rattus norvegicus [1]): 74%

Compound: O=C(Cn1c(CC(F)(F)F)nc2cc(Cl)c(Cl)cc21)c1ccc([N+](=O)[O-])cc1
- Inhibition (Rattus norvegicus [1]): 71%

Compound: Fc1c(F)c(F)c(Cn2c(CC(F)(F)F)nc3cc(Cl)c(Cl)cc32)c(F)c1F
- Inhibition (Rattus norvegicus [1]): 19%

Compound: Cc1cccc(Cn2c(CC(F)(F)F)nc3cc(Cl)c(Cl)cc32)c1
- Inhibition (Rattus norvegicus [1]): 31%

Compound: COc1ccccc1Cn1c(CC(F)(F)F)nc2cc(Cl)c(Cl)cc21
- Inhibition (Rattus norvegicus [1]): 51%

Compound: N#Cc1ccc(Cn2c(CC(F)(F)F)nc3cc(Cl)c(Cl)cc32)cc1
- Inhibition (Rattus norvegicus [1]): 68%

Compound: O=S(=O)(Cc1ccccc1Cn1c(CC(F)(F)F)nc2cc(Cl)c(Cl)cc21)c1ccccc1
- Inhibition (Rattus norvegicus [1]): 74%

Compound: FC(F)(F)Cc1nc2cc(Cl)c(Cl)cc2n1Cc1ccc(C(F)(F)F)cc1C(F)(F)F
- Inhibition (Rattus norvegicus [1]): 13%

Compound: FC(F)(F)Cc1nc2cc(Cl)c(Cl)cc2n1Cc1ccc(Cl)cc1
- Inhibition (Rattus norvegicus [1]): 77%
- ID50 (Rattus norvegicus [2]): 0.28 mg/day

Compound: O=C(Cn1c(CC(F)(F)F)nc2cc(Cl)c(Cl)cc21)c1ccc(Br)cc1
- Inhibition (Rattus norvegicus [1]): 27%

Compound: Fc1ccc(Cn2c(CC(F)(F)F)nc3cc(Cl)c(Cl)cc32)cc1
- Inhibition (Rattus norvegicus [1]): 80%
- ID50 (Rattus norvegicus [2]): 0.19 mg/day

Compound: O=[N+]([O-])c1ccccc1Cn1c(CC(F)(F)F)nc2cc(Cl)c(Cl)cc21
- Inhibition (Rattus norvegicus [1]): 81%
- ID50 (Rattus norvegicus [2]): 0.95 mg/day

Compound: FC(F)(F)Cc1nc2cc(Cl)c(Cl)cc2n1Cc1ccccn1
- Inhibition (Rattus norvegicus [1]): 89%

Compound: OC(c1nc2cc(Cl)c(Cl)cc2[nH]1)C(F)(F)F (centres undefined)
- Inhibition (Rattus norvegicus [1]): 96%

Compound: FC(F)(F)Cc1nc2cc(Cl)c(Cl)cc2n1Cc1ccc(C(F)(F)F)cc1
- Inhibition (Rattus norvegicus [1]): 75%

Compound: O=C(Cn1c(CC(F)(F)F)nc2cc(Cl)c(Cl)cc21)c1ccccn1
- Inhibition (Rattus norvegicus [1]): 76%
- ID50 (Rattus norvegicus [2]): 0.47 mg/day

Compound: CCn1c(C(C)(O)C(F)(F)F)nc2cc(Cl)c(Cl)cc21 (centres undefined)
- Activity (Rattus norvegicus [1]): inactive

Compound: Oc1ccc(Cn2c(CC(F)(F)F)nc3cc(Cl)c(Cl)cc32)cc1
- Inhibition (Rattus norvegicus [1]): 28%

Compound: O=[N+]([O-])c1cccc(Cn2c(CC(F)(F)F)nc3cc(Cl)c(Cl)cc32)c1
- Inhibition (Rattus norvegicus [1]): 49%

Compound: FC(F)(F)Cc1nc2cc(Cl)c(Cl)cc2n1Cc1ccccc1-c1ccccc1
- Inhibition (Rattus norvegicus [1]): 79%
- ID50 (Rattus norvegicus [2]): 0.55 mg/day

Compound: FC(F)(F)Cc1nc2cc(Cl)c(Cl)cc2n1Cc1ccccc1Br
- Inhibition (Rattus norvegicus [1]): 84%
- ID50 (Rattus norvegicus [2]): 0.38 mg/day

Compound: FC(F)(F)Cc1nc2cc(Cl)c(Cl)cc2n1CCOc1ccc(Cl)cc1
- Inhibition (Rattus norvegicus [1]): 48%

Compound: CC(O)(c1nc2cc(Cl)c(Cl)cc2n1CC#N)C(F)(F)F (centres undefined)
- Inhibition (Rattus norvegicus [1]): 54%

Compound: O=C(Cn1c(CC(F)(F)F)nc2cc(Cl)c(Cl)cc21)c1cccc([N+](=O)[O-])c1
- Inhibition (Rattus norvegicus [1]): 14%

Compound: O=C(Cn1c(CC(F)(F)F)nc2cc(Cl)c(Cl)cc21)c1cccs1
- Inhibition (Rattus norvegicus [1]): 43%

Compound: FC(F)(F)Cc1nc2cc(Cl)c(Cl)cc2n1Cc1cccc(OC(F)(F)F)c1
- Inhibition (Rattus norvegicus [1]): 26%

Compound: OC(O)(c1nc2cc(Cl)c(Cl)cc2n1Cc1ccccc1)C(F)(F)F
- Inhibition (Rattus norvegicus [1]): 85%

Compound: COc1cccc(Cn2c(CC(F)(F)F)nc3cc(Cl)c(Cl)cc32)c1
- Activity (Rattus norvegicus [1]): inactive

Compound: COc1ccc(C(=O)Cn2c(CC(F)(F)F)nc3cc(Cl)c(Cl)cc32)c(OC)c1
- Activity (Rattus norvegicus [1]): inactive

Compound: FC(F)(F)C(F)(F)c1nc2cc(Cl)c(Cl)cc2[nH]1
- Activity (Rattus norvegicus [3]): Toxic

Compound: FC(F)(F)Cc1nc2cc(Cl)c(Cl)cc2n1Cc1ccc(OCc2ccccc2)cc1
- Inhibition (Rattus norvegicus [1]): 46%

Compound: FC(F)(F)Cc1nc2cc(Cl)c(Cl)cc2n1Cc1ccccc1Cl
- Inhibition (Rattus norvegicus [1]): 90%
- ID50 (Rattus norvegicus [2]): 0.26 mg/day

Compound: FC(F)(F)Cc1nc2cc(Cl)c(Cl)cc2n1Cc1ccccc1C(F)(F)F
- Inhibition (Rattus norvegicus [1]): 86%

Compound: O=C(Cn1c(CC(F)(F)F)nc2cc(Cl)c(Cl)cc21)c1cccnc1
- Activity (Rattus norvegicus [1]): inactive

Compound: O=C(Cn1c(CC(F)(F)F)nc2cc(Cl)c(Cl)cc21)c1ccccc1
- Inhibition (Rattus norvegicus [1]): 38%

Compound: O=[N+]([O-])c1ccc(Cn2c(CC(F)(F)F)nc3cc(Cl)c(Cl)cc32)cc1
- Inhibition (Rattus norvegicus [1]): 61%

Compound: OC(c1nc2cc(Cl)c(Cl)cc2n1Cc1ccccn1)C(F)(F)F (centres undefined)
- Inhibition (Rattus norvegicus [1]): 84%

Compound: N#Cc1ccc(OCCn2c(CC(F)(F)F)nc3cc(Cl)c(Cl)cc32)cc1
- Inhibition (Rattus norvegicus [1]): 86%

Compound: FC(F)(F)Cc1nc2cc(Cl)c(Cl)cc2n1Cc1ccc(SC(F)(F)F)cc1
- Inhibition (Rattus norvegicus [1]): 13%

Compound: Fc1ccccc1Cn1c(CC(F)(F)F)nc2cc(Cl)c(Cl)cc21
- Inhibition (Rattus norvegicus [1]): 77%
- ID50 (Rattus norvegicus [2]): 0.82 mg/day

Compound: COCn1c(C(C)(O)C(F)(F)F)nc2cc(Cl)c(Cl)cc21 (centres undefined)
- Inhibition (Rattus norvegicus [1]): 88%

Compound: Fc1ccc(OCCn2c(CC(F)(F)F)nc3cc(Cl)c(Cl)cc32)cc1
- Inhibition (Rattus norvegicus [1]): 40%

Compound: FC(F)(F)Cc1nc2cc(Cl)c(Cl)cc2n1Cc1ccc(OC(F)(F)F)cc1
- Inhibition (Rattus norvegicus [1]): 35%

Compound: FC(c1nc2cc(Cl)c(Cl)cc2[nH]1)C(F)(F)F (centres undefined)
- Inhibition (Rattus norvegicus [4]): 81%

Compound: FC(F)(F)Cc1nc2cc(Cl)c(Cl)cc2n1Cc1ccccc1
- Inhibition (Rattus norvegicus [1]): 79%
- ID50 (Rattus norvegicus [2]): 0.37 mg/day

Compound: COc1ccccc1C(=O)Cn1c(CC(F)(F)F)nc2cc(Cl)c(Cl)cc21
- Inhibition (Rattus norvegicus [1]): 10%

Compound: CC(O)(CS(=O)(=O)c1ccc(F)cc1)C(=O)Nc1ccc(C#N)c(C(F)(F)F)c1 (centres undefined) [BICALUTAMIDE]
- Inhibition (Rattus norvegicus [1]): 70%
- ID50 (Rattus norvegicus [2]): 0.23 mg/day

Compound: Cc1ccccc1Cn1c(CC(F)(F)F)nc2cc(Cl)c(Cl)cc21
- Inhibition (Rattus norvegicus [1]): 73%

Compound: Fc1cccc(OCCn2c(CC(F)(F)F)nc3cc(Cl)c(Cl)cc32)c1
- Inhibition (Rattus norvegicus [1]): 22%

Compound: O=C(O)c1ccc(Cn2c(CC(F)(F)F)nc3cc(Cl)c(Cl)cc32)cc1
- Inhibition (Rattus norvegicus [1]): 38%

Compound: CS(=O)(=O)c1ccc(Cn2c(CC(F)(F)F)nc3cc(Cl)c(Cl)cc32)cc1
- Inhibition (Rattus norvegicus [1]): 32%

Compound: OCCn1c(CC(F)(F)F)nc2cc(Cl)c(Cl)cc21
- Inhibition (Rattus norvegicus [1]): 54%

Compound: FC(F)(F)Cc1nc2cc(Cl)c(Cl)cc2n1Cc1ccccc1-c1cccnc1
- Inhibition (Rattus norvegicus [1]): 80%

Compound: COc1ccc(Cn2c(CC(F)(F)F)nc3cc(Cl)c(Cl)cc32)cc1
- Inhibition (Rattus norvegicus [1]): 51%

Compound: FC(F)(F)Cc1nc2cc(Cl)c(Cl)cc2n1Cc1cccc(C(F)(F)F)c1
- Inhibition (Rattus norvegicus [1]): 74%
- ID50 (Rattus norvegicus [2]): 0.4 mg/day

Compound: FC(F)(F)Cc1nc2cc(Cl)c(Cl)cc2n1Cc1ccc(Br)cc1
- Inhibition (Rattus norvegicus [1]): 75%
- ID50 (Rattus norvegicus [2]): 0.13 mg/day

Compound: OC(c1nc2cc(Cl)c(Cl)cc2n1Cc1ccccc1)C(F)(F)F (centres undefined)
- Inhibition (Rattus norvegicus [1]): 49%

Compound: FC(F)(F)Cc1nc2cc(Cl)c(Cl)cc2[nH]1
- Inhibition (Rattus norvegicus [1]): 90%

Compound: Cn1c(C(C)(O)C(F)(F)F)nc2cc(Cl)c(Cl)cc21 (centres undefined)
- Activity (Rattus norvegicus [1]): inactive

Compound: CCC(=O)Cn1c(CC(F)(F)F)nc2cc(Cl)c(Cl)cc21
- Inhibition (Rattus norvegicus [1]): 64%

Compound: COc1cccc(C(=O)Cn2c(CC(F)(F)F)nc3cc(Cl)c(Cl)cc32)c1
- Activity (Rattus norvegicus [1]): inactive

Compound: FC(F)(F)Cc1nc2cc(Cl)c(Cl)cc2n1Cc1ccccc1-c1ccccn1
- Inhibition (Rattus norvegicus [1]): 89%
- ID50 (Rattus norvegicus [2]): 0.4 mg/day

Compound: Fc1cccc(Cn2c(CC(F)(F)F)nc3cc(Cl)c(Cl)cc32)c1
- Inhibition (Rattus norvegicus [1]): 55%

Compound: O=C(Cn1c(CC(F)(F)F)nc2cc(Cl)c(Cl)cc21)c1ccc(F)cc1
- Inhibition (Rattus norvegicus [1]): 67%

Compound: CCOC(=O)c1ccc(Cn2c(CC(F)(F)F)nc3cc(Cl)c(Cl)cc32)cc1
- Inhibition (Rattus norvegicus [1]): 56%

Compound: FC(F)(F)Cc1nc2cc(Cl)c(Cl)cc2n1Cc1ccccc1-c1ccncc1
- Inhibition (Rattus norvegicus [1]): 42%

Compound: FC(F)(F)Cc1nc2cc(Cl)c(Cl)cc2n1Cc1cccc(Cl)c1
- Inhibition (Rattus norvegicus [1]): 35%

Compound: N#Cc1cccc(Cn2c(CC(F)(F)F)nc3cc(Cl)c(Cl)cc32)c1
- Inhibition (Rattus norvegicus [1]): 70%

Compound: O=C(Cn1c(CC(F)(F)F)nc2cc(Cl)c(Cl)cc21)c1ccc(Cl)cc1
- Inhibition (Rattus norvegicus [1]): 33%

Compound: N#Cc1ccccc1Cn1c(CC(F)(F)F)nc2cc(Cl)c(Cl)cc21
- Inhibition (Rattus norvegicus [1]): 74%
